Measured values taken from patent publication US10328075B2, “Method of treatment and compounds for use therein” (Baker Heart and Diabetes Institute, priority 2015, dated 2019).

Tests used:
hFPR1 [1] = target: T1, hFPR1 (Homo sapiens, UniProt P21462); assay: ERK1/2 phosphorylation (AlphaScreen SureFire) in hFPR1-FlpIn-CHO cells; type: cell-based
T1 construct: expressed in transfected cells
T1 sequence (P21462 1-350): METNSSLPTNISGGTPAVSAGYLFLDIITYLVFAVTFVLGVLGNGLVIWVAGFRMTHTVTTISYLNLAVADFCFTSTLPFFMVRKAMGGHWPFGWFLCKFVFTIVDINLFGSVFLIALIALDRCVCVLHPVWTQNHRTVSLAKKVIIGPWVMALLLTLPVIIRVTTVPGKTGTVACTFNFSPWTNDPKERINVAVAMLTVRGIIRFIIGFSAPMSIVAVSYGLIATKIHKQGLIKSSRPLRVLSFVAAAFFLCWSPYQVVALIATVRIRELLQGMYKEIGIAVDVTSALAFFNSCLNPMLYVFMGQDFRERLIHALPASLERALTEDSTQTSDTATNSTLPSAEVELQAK
Text: (§1) cDNDA construct and generation of stable cell lines: cDNA in pcDNA3.1^+ encoding the human formyl peptide receptors (FPR) subtypes, hFPR1, hFPR2 and hFPR3 was obtained from Invitrogen. The sequences for 3 hFPR receptors were amplified by PCR and cloned into the Gateway entry vector, pDONR202™, using the BP clonase enzyme mix, according to the manufactures' instructions (Invitrogen Inc, Carlsbad, Calif., USA). All hFPR receptors constructs in pDONR201™ were subsequently transfected into the pEF5/FRT/V5/dest vector using the LR clonase enzyme mix (Invitrogen). Receptor constructs (pEF5/FRT/V5/dest) were used to transfect FIp-In CHO cells as described previously (Valant C et al., PNAS, 2014). Cells were selected using 500 μg/mL hydromycin to generate cell lines stably expressing each receptor construct. Cells were maintained and cultured in high glucose DMEM supplemented with 10% FBS, 16 mM HEPES and 500 μg/mL hydromycin at 37° C. under a humidified atmosphere containing 5% CO2.
(§2) In the various assays described below, cells were plated into 96-well transparent cell culture plates at 4×10^4 cells per well, cultured overnight in serum-free media at 37° C. in 5% CO2.
Measurement of extracellular signal regulated kinase 1 and 2 phosphorylation (pERK1/2): Initial ERK1/2 phosphorylation at Thr202/Tyr204 time-course experiments were performed to determine the time at which ERK1/2 phosphorylation was maximal after stimulation by each agonist. Cells were seeded onto transparent 96-well cell culture plates at 4×10^4 cells per well. After 6 h, cells were washed once with PBS, and then incubated in serum-free DMEM overnight, to allow FBS-stimulated phosphorylated ERK1/2 levels to subside. […] 10% (v/v) FBS was used as a positive control, with vehicle controls also included. The reaction was terminated by removal of study drugs and lysis of cells with 100 μL of SureFire lysis buffer (TGR Biosciences). Cell were lysed in SureFire lysis buffer and transferred to 384-well opaque proxiplates. Under low-light conditions, a 1:120 (v:v) dilution of AlphaScreen beads (both acceptor and donor):Surefire reaction buffer was prepared, which was mixed with the activation buffer in a ratio of 6:1 (v:v), respectively. Plates were incubated in the dark at 37° C. for 1 h before the fluorescence signal was measured by a Fusion-α plate reader (PerkinElmer Life and Analytical Sciences, Foster city, CA, USA) with standard AlphaScreen settings. Data were normalized to the maximal response elicited by 10% (v/v) FBS at the same time point.
Receptor mediated pERK1/2 levels were determined using the AlphaScreen™ ERK1/2 SureFire™ kit, as described previously (Keov, P et al., 2014). For all experiments, 10% FBS was used as internal positive control to stimulate pERK1/2, and which the maximum responses were used for normalization of data, whilst vehicle was used as negative control.
(§3) Data analysis: All data were analysed using GraphPad Prism 6.0 (GraphPad Software, San Deigo, Calif., USA). Where appropriate, concentration-response curves were fitted to derive the maximal agonist effect (Emax), and the ligand potency estimate (pEC50), where Emax is the maximal possible response of the system (not the agonist), basal is the basal level of response in the absence of agonist, and pEC50 is the negative logarithm of the agonist concentration that gives a response halfway between Emax and basal.
In the present study, FIp-IN CHO cells and Gateway plasmid were obtained from Invitrogen Inc (Carlsbad, Calif., USA). The sequences for all 3 known human FPRs (hFPR1, hFPR2 and hFPR3) were amplified by PCR and cloned into the Gateway entry vector, pDONR202TM, using the BP clonase enzyme mix, according to the manufacturers' instructions. The hFPR pDONR201TM constructs were subsequently transfected into the pEF5/FRT/V5/dest vector using the LR clonase enzyme mix (Invitrogen).

hFPR1 [2] = target: T1, hFPR1; assay: [Ca2+]i mobilization in FlpIn-CHO cells stably expressing hFPR1; type: cell-based; parameters: Calcium Rmax: unit not given here
Text: as §1, §2
Intracellular calcium mobilization: Intracellular calcium mobilization was assayed as described previously (Keov, P et al., 2014). Briefly, cells were washed once using HEPES buffered saline (HBS) solution [150 mM NaCl, 2.2 mM CaCl2, 2.6 mM KCl, 1.2 mM MgCl2, 10 mM HEPEs, 10 mM D-Glucose, 0.5% (w/v) bovine serum albumin (BSA) and 4 mM probenecid] at pH 7.4, then treated with Fluo-4-AM (1 μM, in HBS/BSA/probenecid) for 60 min at 37° C. in 5% CO2 in the dark. Cells were then further washed and placed in HBS/BSA/probenecid solution for ligation addition and assay using the FLEXstation 3 plate reader (Molecular Devices, Sunnyvale, Calif.). For all experiments, peak change in fluorescence signal was normalized to the cellular response to 100 μM ATP, which was used as an internal positive control.
as §3
In the present study, FIp-IN CHO cells and Gateway plasmid were obtained from Invitrogen Inc (Carlsbad, Calif., USA). The sequences for all 3 known human FPRs (hFPR1, hFPR2 and hFPR3) were amplified by PCR and cloned into the Gateway entry vector, pDONR202TM, using the BP clonase enzyme mix, according to the manufacturers' instructions. The hFPR pDONR201TM constructs were subsequently transfected into the pEF5/FRT/V5/dest vector using the LR clonase enzyme mix (Invitrogen). Receptor constructs (pEF5/FRT/V5/dest) were used to transfect FIp-IN CHO cells, as described previously (Valant et al. 2014). Cells were selected using 500 μg/mL hydromycin to generate cell lines stably expressing each human receptor construct. Cells were maintained and cultured in high glucose Dulbecco's modified eagle medium (DMEM) supplemented with 10% fetal bovine serum (FBS, from JRH Biosciences, Lenexa, Kans., USA) and 500 μg/mL hydromycin B (Invitrogen Inc) at 37° C. under a humidified atmosphere containing 5% CO2. Cell were plated into 96-well transparent cell culture plates at 4×10^4 cells per well, cultured overnight in serum-free media at 37° C. in 5% CO2.
(ii) Intracellular Ca2+ mobilization: Intracellular Ca2+ mobilization was determined in stably-transfected recombinant hFPR CHO cells, as described previously (Valant et al. 2014).

hFPR1 [3] = target: T1, hFPR1; assay: Quantification of biased agonism (operational model) at hFPR1 in CHO cells; type: cell-based; settings: Table 9
Text: To quantify biased agonism mediated by each agonist across the various pathways ([Ca^2+], mobilization, pERK1/2, Akt1/2/3 and inhibition of cAMP accumulation), agonist concentration-response curves were refitted using the operation model normalized to the transduction ratio of a reference agonist (in this case, BIDI-002) as described previously (Stewart G D et al., 2009). Under these conditions, if the test agonist and the reference agonist activate the two pathways through a common receptor conformation, the log [bias factor] should be 0.0 (or bias factor different from 1.0), irrespective of differences in response amplification between pathways. In contrast, significant deviation of log [bias factor] from 0.0 (or bias factor different from 1.0) indicates the involvement of distinct conformations for the different agonists. All affinities, potencies, efficacies, and cooperativity parameters were estimated as logarithms (Christopoulos, 1998). Results are expressed as means±S.E. unless otherwise stated. Statistical analyses were by Student's t test, or one-way ANOVA followed by Dunnett's Comparison or Tukey's post-hoc test, as appropriate. Values of p<0.05 were considered statistically significant.
A “transduction ratio” is firstly derived for each response (τ/KA, where τ represents efficacy, and KA affinity, of the agonist for each GPCR conformational state), extracted from each concentration-response curve. “Bias factors” (ΔΔ(τ/KA)) were then calculated by normalizing the transduction ratio to a reference ligand (in this case, Cmpd43) and reference pathway, which here was Akt1/2/3(Thr308) phosphorylation. Lastly, bias factors were plotted on a ‘web of bias’ to visualize the potential for biased agonism. […] Under these conditions, if the test agonist and the reference agonist activate the two pathways through a common receptor conformation, the log [bias factor] should be 0.0 (i.e. the bias factor 1.0), irrespective of differences in response amplification between pathways. In contrast, significant deviation of log [bias factor] away from 0.0 (i.e. where the bias factor is different to 1.0) indicates the involvement of distinct conformations for the different agonists. All affinities, potencies, efficacies, and cooperativity parameters were estimated as logarithms (Kenakin et al. 2012).
Five signaling pathways were examined, namely pERK1/2-phosphorylation, Akt1/2/3(Ser473)-phosphorylation, Akt1(Thr308)-phosphorylation, increases in Ca2+i and inhibition of forskolin-induced cAMP accumulation. An operational model of agonism was fitted to each concentration-response curve to estimate a transduction ratio (τ/KA) for each agonist, at each pathway assessed, as described (FIG. 21B) (Kenakin et al. 2012). Transduction ratios were normalized to a reference agonist (Cmpd43) and a reference pathway (Akt1/2/3(Thr308)-phosphorylation), generating bias factors and therefore allowing quantitative cross-pathway comparison for each agonist.

[4] = Plasma levels and pharmacokinetics in mice; type: in vivo, mouse; settings: mouse, in vivo; Table 9; mice
[5] = Table 10, receptor not given, values of 10394/10396 equal the hFPR1 values of Table 9
[6] = Table 10, receptor not given, ND = Not detectable
[7] = Table 10, receptor not given, ND = Not detectable, read-out: Calcium pEC50 (converted)
[8] = Table 10, receptor not given, values of 10394/10396 equal the hFPR1 values of Table 9, read-out: ERK pEC50 (converted)

| SMILES | ERK Rmax (hFPR1 [1]; Table 10, receptor not given) | ERK pEC50 (hFPR1 [1]; [5]) | Calcium Rmax (hFPR1 [2]; [6]) | EC50 (hFPR1 [1]; [8]) [nM] | also measured |
| --- | --- | --- | --- | --- | --- |
| COc1ccccc1Cc1cc(C)nn(CC(=O)Nc2ccc(C)cc2)c1=O [MIPS-0014058] | 87 ± 1 | – | 32 ± 1 | 1150 | EC50 (hFPR1 [2]; [7]): 5010 nM |
| COc1ccc(NC(=O)Cn2nc(C)cc(Cc3ccccc3OC)c2=O)cc1 [MIPS-0014052] | 64 ± 6 | 5.10 ± 0.23 | 13 ± 3 | – | – |
| COc1cccc(Cc2cc(C)nn(Cc3ccc(Cl)cc3)c2=O)c1OC [MIPS-0010394] | 82 ± 5 | – | 38 ± 2 | 170 | EC50 (hFPR1 [2]; Table 9, read-out: potency (pEC50) Ca^2+i, hFPR1-FlpInCHO cells in vitro (converted)): 407 nM; EC50 (hFPR1 [2]; [7]): 407 nM; EC50 (hFPR1 [1]; Table 9, read-out: potency (pEC50) pERK1/2, hFPR1-FlpInCHO cells in vitro (converted)): 170 nM; Bias (away from Ca2+i), hFPR1-FlpInCHO cells in vitro (hFPR1 [3]): Slight; Tmax [4]: 0.3 h; half-life [4]: 9.5 h |
| Cc1cc(Cc2cccc3c2OCCO3)c(=O)n(CC(=O)Nc2ccc(Cl)cc2)n1 [MIPS-0014053] | 78 ± 13 | – | – | 1910 | – |
| Cc1cc(Cc2ccccn2)c(=O)n(CC(=O)Nc2ccc(Cl)cc2)n1 [MIPS-0014057] | 91 ± 4 | – | 45 ± 10 | 603 | EC50 (hFPR1 [2]; [7]): 4570 nM |
| COc1ccc(NC(=O)Cn2nc(C)cc(Cc3c(OC)cccc3OC)c2=O)cc1 [MIPS-0014071] | 78 ± 2 | – | 48 ± 7 | 2630 | EC50 (hFPR1 [2]; [7]): 2820 nM |
| COc1cccc(Cc2cc(C)nn(CC(=O)Nc3ccc(Cl)cc3)c2=O)n1 [MIPS-0014055] | 94 ± 11 | – | 11 ± 2 | 1780 | – |
| Cc1cc(Cc2ccccn2)c(=O)n(CC(=O)Nc2ccc(Cl)cc2)n1 [MIPS-0010397] | 74 ± 3 | – | 18 ± 8 | 1020 | – |
| COc1ccccc1Cc1cc(C)nn(CC(=O)Nc2ccc(Cl)cc2)c1=O [MIPS-0010392] | 81 ± 2 | 5.91 ± 0.13 | 17 ± 3 | – | EC50 (hFPR1 [2]; [7]): 18200 nM |
| COc1ccc(OC)c(Cc2cc(C)nn(CC(=O)Nc3ccc(Cl)cc3)c2=O)c1 [MIPS-0010384] | 77 ± 3 | 5.00 ± 0.37 | 19 ± 2 | – | EC50 (hFPR1 [2]; [7]): 6030 nM |

Further lines, with some results ahead:

| ERK Rmax (hFPR1 [1]; Table 10, receptor not given) | ERK pEC50 (hFPR1 [1]; [5]) | Calcium Rmax (hFPR1 [2]; [6]) | EC50 (hFPR1 [1]; [8]) [nM] | SMILES | also measured |
| --- | --- | --- | --- | --- | --- |
| 79 ± 9 | 5.30 ± 0.12 | – | – | CCc1ccc(NC(=O)Cn2nc(C)cc(Cc3ccccc3OC)c2=O)cc1 [MIPS-0014051] | – |
| 89 ± 1 | 5.74 ± 0.13 | 5 ± 1 | – | Cc1cc(Cc2ccc(F)cc2)c(=O)n(C(C)C(=O)Nc2ccc(Br)cc2)n1 (stereo not shown) [MIPS-0008857] | – |
| 91 ± 8 | 5.75 ± 0.12 | 8 ± 2 | – | Cc1cc(Cc2ccccc2F)c(=O)n(C(C)C(=O)Nc2ccc(Br)cc2)n1 (stereo not shown) [MIPS-0008858] | – |
| 64 ± 4 | – | 19 ± 3 | 12600 | COc1cccc(Cc2cc(C)nn(C(C)C(=O)Nc3ccc4c(c3)OCO4)c2=O)c1 (stereo not shown) [MIPS-0008856] | – |
| 57 ± 2 | 5.07 ± 0.18 | – | – | COc1cccc(Cc2cc(C)nn(C(C)C(=O)Nc3ccc(F)cc3)c2=O)c1 (stereo not shown) [MIPS-0008749] | – |
| 95 ± 5 | 5.47 ± 0.12 | 20 ± 5 | – | COc1cccc(Cc2cc(C)nn(C(C)C(=O)Nc3ccc(Cl)cc3)c2=O)c1 (stereo not shown) [MIPS008744] | – |
| 50 ± 4 | 5.12 ± 0.38 | – | – | COc1cccc(Cc2cc(C)nn(C(C)C(=O)Nc3cccc(F)c3)c2=O)c1 (stereo not shown) [MIPS-0008745] | – |
| 76 ± 3 | 6.07 ± 0.11 | 26 ± 9 | – | COc1ccccc1Cc1cc(C)nn(C(C)C(=O)Nc2ccc(Br)cc2)c1=O (stereo not shown) [MIPS-0008854] | – |
| 74 ± 7 | – | 26 ± 6 | 5750 | COc1cccc(Cc2cc(C)nn(C(C)C(=O)Nc3ccc4c(c3)OCO4)c2=O)c1 (stereo not shown) [MIPS-0008750] | – |
| 81 ± 6 | 5.58 ± 0.14 | 26 ± 6 | – | COc1ccc(Cc2cc(C)nn(C(C)C(=O)Nc3ccc(Br)cc3)c2=O)cc1 (stereo not shown) [MIPS-0008853] | – |
| 93 ± 7 | 5.68 ± 16 | 18 ± 3 | – | Cc1cc(Cc2cccc(F)c2)c(=O)n(C(C)C(=O)Nc2ccc(Br)cc2)n1 (stereo not shown) [MIPS-0008859] | – |
